# Values of other authors, collected in patent publication US20220211813A1, “METHODS FOR TREATMENT OF NIEMANN-PICK DISEASE TYPE C” (LOMA LINDA UNIVERSITY, priority 2019, published 2022).
# Tested on: IFN-γ
# Settings: as described in Pododlin et al. J Pharmacol Exp Ther. 312(1):373-81, 2005
compound,measurement,value
NC(=O)Nc1sc(-c2ccc(F)cc2)cc1C(N)=O [TPCA-1],blocks IFN-γ,about 50%
